Data from patent US20240190883A1, “KRAS PROTEIN DEGRADERS, PHARMACEUTICAL COMPOSITIONS THEREOF, AND THEIR THERAPEUTIC APPLICATIONS” (BioTheryX, Inc., priority 2021, published 2024).

Experiments:
Type in all cases: cell-based
Conditions in all cases: 24 h, HiBiT signal normalized to CTG signal
[1] = target: T1, KRAS protein (Homo sapiens, UniProt P01116); assay: HIBIT degradation assay, HEK293 cells
T1 construct: engineered to express a Hobbit-tagged endogenous KRAS protein; endogenous in cells; host or cells: HEK293, endogenous KRAS locus engineered with a HiBiT tag
Description: (§1) HEK293, MIA PaCa-2, AsPc-1, SW620, and H647 cells were engineered to express a […] endogenous KRAS protein. The HEK293 and MIA PaCa-2 cells were cultured in DMEM media supplemented with 10% fetal bovine serum, streptomycin, and penicillin. The AsPc-1, SW620, and H647 were cultured in RPMI media supplemented with 10% fetal bovine serum, streptomycin, and penicillin. The cells were seeded in white walled 96-well plates at 20,000 cells/well in 100 μL culture media in duplicate plates. After incubated at 37° C. under 5% CO2 overnight, the cells were treated with DMSO (control) or a compound, followed by the addition of 100 μL culture media to each well. After the cells were incubated for 24 h at 37° C. under 5% C02, 150 μL media were removed from each well and 50 μL NANOGLO-LGBIT lytic reagent were added to each well, and 50 μL CELLTITER-GLO (CTG) reagent was added to the duplicate plate. Following a 10-minute incubation with shaking, luminescence was measured using a Perkin Elmer ENVISION multimode plate reader. HiBiT signal was normalized to CTG signal. The results are summarized in Table 3, where “A” represents a percentage degradation value of no less than 50%; “B” represents a percentage degradation value of less than 50% and no less than 25%; “C” represents a percentage degradation value of less than 25% and no less than 10%; and “D” represents a percentage degradation value of less than 10%.

[2] = target: T2, KRAS protein (Homo sapiens, UniProt P01116, G12C); assay: HIBIT degradation assay, MIA PaCa-2 cells
T2 construct: engineered to express a Hobbit-tagged endogenous KRAS protein; endogenous in cells; host or cells: MIA PaCa-2, endogenous KRAS locus engineered with a HiBiT tag
Description: as §1

[3] = target: T3, KRAS protein (Homo sapiens, UniProt P01116, G12D); assay: HIBIT degradation assay, AsPC-1 cells
T3 construct: engineered to express a Hobbit-tagged endogenous KRAS protein; endogenous in cells; host or cells: AsPC-1, endogenous KRAS locus engineered with a HiBiT tag
Description: as §1

T2 sequence (P01116 whole entry G12C): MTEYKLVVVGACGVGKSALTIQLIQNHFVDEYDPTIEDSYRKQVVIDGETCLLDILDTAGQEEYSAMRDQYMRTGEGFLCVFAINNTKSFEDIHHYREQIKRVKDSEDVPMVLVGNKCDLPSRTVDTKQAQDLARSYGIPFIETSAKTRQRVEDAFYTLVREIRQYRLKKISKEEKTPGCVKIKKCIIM
T1 sequence (P01116 1-188 isoform P01116-2): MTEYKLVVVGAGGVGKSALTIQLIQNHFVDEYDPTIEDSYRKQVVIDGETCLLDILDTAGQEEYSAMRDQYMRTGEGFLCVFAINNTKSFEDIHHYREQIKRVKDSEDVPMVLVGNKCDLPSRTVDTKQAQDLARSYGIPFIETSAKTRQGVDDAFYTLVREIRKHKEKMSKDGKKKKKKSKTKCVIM
T3 sequence (P01116 1-188 isoform P01116-2 G12D): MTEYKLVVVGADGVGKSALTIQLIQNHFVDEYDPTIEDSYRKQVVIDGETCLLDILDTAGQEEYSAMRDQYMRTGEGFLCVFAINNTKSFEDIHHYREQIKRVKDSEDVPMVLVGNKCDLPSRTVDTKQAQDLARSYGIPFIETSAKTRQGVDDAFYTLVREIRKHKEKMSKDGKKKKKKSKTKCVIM

Cc1nn2c(N3CCN(CCO)CC3)cc(-c3ccc(F)cc3)nc2c1-c1cccc(CCCCCN2CCN(C(=O)CNc3ccc4c(C5CCC(=O)NC5=O)nn(C)c4c3)CC2)c1 (stereo not drawn) [Compound D19, 3-(6-((2-(4-(5-(3-(5-(4-Fluorophenyl)-7-(4-(2-hydroxyethyl)piperazin-1-yl)-2-methylpyrazolo[1,5-a]pyrimidin-3-yl)phenyl)pentyl)piperazin-1-yl)-2-oxoethyl)amino)-1-methyl-1H-indazol-3-yl)piperidine-2,6-dione]
Effect on KRAS Protein Degradation, HEK293, 3 μM ([1]; compound at 3 μM): D (a percentage degradation value of less than 10%)
Effect on KRAS Protein Degradation, HEK293, 5 μM ([1]; compound at 5 μM): D (a percentage degradation value of less than 10%)
Effect on KRAS Protein Degradation, MIA PaCa-2, 3 μM ([2]; compound at 3 μM): D (a percentage degradation value of less than 10%)
Effect on KRAS Protein Degradation, MIA PaCa-2, 5 μM ([2]; compound at 5 μM): C (a percentage degradation value of less than 25% and no less than 10%)
Effect on KRAS Protein Degradation, AsPC-1, 3 μM ([3]; compound at 3 μM): C (a percentage degradation value of less than 25% and no less than 10%)
Effect on KRAS Protein Degradation, AsPC-1, 5 μM ([3]; compound at 5 μM): C (a percentage degradation value of less than 25% and no less than 10%)
